Like-named read-outs stand apart in the source and are kept apart here.
System: MT4 cell line
Conditions: human, 14 days
Protocol: Several suitable cell lines supporting HIV growth are readily available including lines include those supporting HIV growth including the CEM×174 cell line derived from Swedish Institute for Infectious Disease Control (SMI) Sweden, MT-4 (commercially available) and Hep G2 (commercially available).
In short, 100 ul cells are seeded in a 96-well plate at a concentration of 1×10^4 cells/ml, at exponential growth were cultured in RPMI 1640 medium (from Gibco) supplemented with 10% heat-inactivated fetal bovine serum (from Gibco) and Penicillin-Streptomycin (from Gibco). The medium is changed every 3 or 4 days, and cells are subcultured once a week at a dilution of 1:10. All cultures are routinely checked for Mycoplasma infection and grown at 37° C. in a humidified 5% CO2 atmosphere.
All drugs tested were first dissolved at 10 mM in dimethyl sulfoxide (DMSO) before further dilution to the appropriate concentration in the culture medium. The analysis of mitochondrial DNA was performed by using Taqman technology as previously reported (Zhang, H et al. Mol. Pharmacol 1994 46:1063-1069), with modifications, and is briefly described below.
The cells are treated for a series of durations with the test drugs, such as alovudine, fosalvudine, zidovudine, abacavir etc or various combinations of alovudine/fosalvudine and zidovudine/abacavir. The various ratios indicated in the respective Tables. After 14 days of drug exposure, cells are collected. Total cellular DNA was prepared using the QiAamp DNA blood Mini kit (QIAGEN, Chatsworth, Calif.), following the supplier's instructions for the Qiagene Blood&Body Fluid Spin Protocol, and subject to DNA amplification.
The probes of mitochondrial DNA Taqman and human nuclear DNA were prepared from Applied Biosystems, which employs an internal quenched DNA probe utilizing fluorescence resonance energy transfer (FRET) to generate a spectroscopic response due to 5′->3′ exonuclease activity of Taq DNA polymerase during DNA amplification. […] It is a fully integrated system for real-time detection of PCR using ABI PRISM 7700 and TaqMan reagents for the fluorogenic 5′ nuclease assay.
The cell growth was controlled by cellular nuclear DNA ([…] ribosomal DNA).
The above described assay was performed in the MT4 cell line derived from a T lymphocyte.

## Nc1nc(NC2CC2)c2ncn([C@H]3C=C[C@@H](CO)C3)c2n1 [abacavir]
1 uM
  Inhibition of mitochondrial DNA, %: 18%
  Mean qty mt DNA: 756544
20 uM
  Inhibition of mitochondrial DNA, %: 51%
  Mean qty mt DNA: 506181

## Cc1cn([C@H]2C[C@H](F)[C@@H](CO)O2)c(=O)[nH]c1=O [alovudine, 2′,3′-dideoxy-3′-fluorothymidine]
0.1 uM
  % Reduction mt/n DNA: 13%
  % reduction mt DNA: 44%
  % reduction n DNA: 35%
  Inhibition of mitochondrial DNA %: 70%
  Inhibition of mitochondrial DNA, %: 40%
  Mean qty mt DNA: 549900
  Ratio Mitochondrial: Nuclear DNA: 0.45
  Relative no. copies mt DNA: 434709
  Relative no. copies n DNA: 956331
0.2 uM
  Inhibition of mitochondrial DNA, %: 82%
  Mean qty mt DNA: 187574
0.3 uM
  % Reduction mt/n DNA: 59%
  % reduction mt DNA: 68%
  % reduction n DNA: 22%
  Inhibition of mitochondrial DNA %: 95%
  Ratio Mitochondrial: Nuclear DNA: 0.21
  Relative no. copies mt DNA: 247481
  Relative no. copies n DNA: 1160000
0.6 uM
  % Reduction mt/n DNA: 89%
  % reduction mt DNA: 88%
  % reduction n DNA: 0%
  Ratio Mitochondrial: Nuclear DNA: 0.06
  Relative no. copies mt DNA: 96998
  Relative no. copies n DNA: 1740000
1 uM
  Inhibition of mitochondrial DNA %: 100%

## Cc1cn([C@H]2C[C@H](N=[N+]=[N-])[C@@H](CO)O2)c(=O)[nH]c1=O [zidovudine, 2′3′-dideoxy-3′-azido-thymidine]
1 uM
  Inhibition of mitochondrial DNA %: 0%
3 uM
  Inhibition of mitochondrial DNA %: 0%
10 uM
  % Reduction mt/n DNA: 0%
  % reduction mt DNA: 0%
  % reduction n DNA: 40%
  Inhibition of mitochondrial DNA %: 0%
  Ratio Mitochondrial: Nuclear DNA: 0.96
  Relative no. copies mt DNA: 856782
  Relative no. copies n DNA: 891446
30 uM
  % Reduction mt/n DNA: 0%
  % reduction mt DNA: 0%
  % reduction n DNA: 43%
  Inhibition of mitochondrial DNA, %: 0%
  Mean qty (mitochondrial DNA): 1410000
  Ratio Mitochondrial: Nuclear DNA: 1.19
  Relative no. copies mt DNA: 993321
  Relative no. copies n DNA: 836935
60 uM
  % Reduction mt/n DNA: 0%
  % reduction mt DNA: 4%
  % reduction n DNA: 40%
  Ratio Mitochondrial: Nuclear DNA: 0.84
  Relative no. copies mt DNA: 748730
  Relative no. copies n DNA: 890663
